Among the test systems are Escherichia coli BL21; Escherichia coli UB1005; Salmonella sp.; Yersinia enterocolitica; Escherichia coli; Pseudomonas aeruginosa 9.
What all share (assay): ≥ marks a high value that may be exact or a test limit, other limits are often not marked, values filed in µg/mL are converted to µM
Experiment [1] has as its system Streptococcus pyogenes M1T1 5448.
The test system of experiment [2] is Pseudomonas aeruginosa PAO1.
The subject of experiment [3] is Pseudomonas aeruginosa Z61.
The test system of experiment [4] is Pseudomonas aeruginosa H547.
Experiment [5] relates to Salmonella enterica subsp. enterica serovar Typhimurium ATCC 14028s.
Experiment [6] relates to Pseudomonas aeruginosa H744.
For experiment [7], the system named is Pseudomonas aeruginosa K799.
Experiment [8] deals with Staphylococcus aureus ATCC 29213.
Experiment [9] deals with Salmonella enterica subsp. enterica serovar Enteritidis.
Experiment [10] concerns Escherichia coli ATCC 25922.
Experiment [11] deals with Pseudomonas aeruginosa ATCC 27853.
In experiment [12] the test system is Staphylococcus aureus ATCC 43300.
The test system of experiment [13] is Enterococcus faecium t62764.
Experiment [14] has as its system Escherichia coli ESBL 63103.
The subject of experiment [15] is Staphylococcus aureus ATCC 25923.
In experiment [16] the test system is Pseudomonas aeruginosa 213.
Experiment [17] has as its system Klebsiella pneumoniae ESBL 61962.
The subject of experiment [18] is Enterobacter cloacae 218R.
In experiment [19] the test system is Pseudomonas aeruginosa H1030.
Experiment [20] relates to Pseudomonas aeruginosa H1027.
Experiment [21] has as its system Escherichia coli ESBL 64771.
For experiment [22], the system named is Enterococcus faecalis f43559.
Experiment [23] concerns Enterococcus faecalis ATCC 29212.
The subject of experiment [24] is Staphylococcus aureus C623.
Experiment [25] deals with Stenotrophomonas maltophilia ATCC 13637.
The test system of experiment [26] is Enterococcus faecalis W61950.
Experiment [27] has as its system Klebsiella pneumoniae ESBL 63575.
For experiment [28], the system named is Enterococcus faecium mic80.
Experiment [29] relates to Pseudomonas aeruginosa PAO1 H103.
For experiment [30], the system named is Pseudomonas aeruginosa 198.
In experiment [31] the test system is Pseudomonas aeruginosa LES400.
Experiment [32] relates to Cryptococcus neoformans ATCC 32264.
Experiment [33] concerns Candida albicans ATCC 10231.
For experiment [34], the system named is Staphylococcus aureus USA 300.

This passage reports MIC results from DBAASP.

≈ marks a conversion by molar mass, not a printed value. Some results are limits rather than exact numbers.

In the case of `CC[C@H](C)[C@H](NC(=O)[C@H](CCCN=C(N)N)NC(=O)CNC(=O)[C@@H](NC(=O)[C@H](CCCCN)NC(=O)[C@H](CCCN=C(N)N)NC(=O)[C@@H](NC(=O)[C@H](Cc1ccc(O)cc1)NC(=O)[C@H](CCCN=C(N)N)NC(=O)[C@H](CCCN=C(N)N)NC(=O)[C@H](CC(C)C)NC(=O)[C@H](CCC(=O)O)NC(=O)[C@H](CCCCN)NC(=O)[C@H](C)NC(=O)[C@@H](NC(=O)[C@H](CCCN=C(N)N)NC(=O)[C@H](CC(N)=O)NC(=O)[C@@H](NC(=O)CNC(=O)[C@H](C)N)[C@@H](C)O)[C@@H](C)CC)[C@@H](C)CC)C(C)C)C(=O)N[C@@H](C)C(=O)N[C@@H](CCCN=C(N)N)C(=O)N[C@@H](CCCCN)C(=O)N[C@@H](CCCCN)C(=O)N[C@@H](Cc1c[nH]c2ccccc12)C(=O)O` [AGTNRIAKELRRYIRKVGRIARKKW], the minimal inhibitory concentration (MIC) (commonly the lowest concentration that inhibits growth of the organism) with Escherichia coli BL21 is 1 µM (≈ 3.04 µg/mL); in [1], 1 µM (≈ 3.04 µg/mL); in experiment [2] it was 16 µM (≈ 48.7 µg/mL).

On to `CC(C)C[C@H](NC(=O)[C@H](C)NC(=O)[C@H](CC(N)=O)NC(=O)[C@@H]1CCCN1C(=O)CNC(=O)[C@H](CO)NC(=O)[C@H](CC(N)=O)NC(=O)[C@@H](NC(=O)[C@H](C)NC(=O)[C@H](CCCCN)NC(=O)[C@H](CCC(N)=O)NC(=O)[C@H](C)NC(=O)[C@H](CCCCN)NC(=O)[C@H](Cc1c[nH]c2ccccc12)NC(=O)[C@H](Cc1c[nH]c2ccccc12)NC(=O)[C@H](CCCCN)NC(=O)[C@@H](N)CCCCN)C(C)C)C(=O)N[C@@H](CCC(N)=O)C(=O)N[C@H](C(=O)N[C@@H](CC(C)C)C(=O)N[C@@H](C)C(=O)N[C@@H](CCC(N)=O)C(=O)O)[C@@H](C)O` [KKWWKAQKAVNSGPNALQTLAQ], for which the minimal inhibitory concentration (MIC) (in [3]; in experiment [4]; in experiment [5]; in experiment [6]; in the experiment with Escherichia coli UB1005; in [7]) was 25.9 µM (≈ 64 µg/mL) throughout.

Regarding `CC[C@H](C)[C@H](NC(=O)[C@H](CCC(N)=O)NC(=O)[C@@H](N)CCCN=C(N)N)C(=O)N[C@@H](CCCN=C(N)N)C(=O)N[C@@H](Cc1c[nH]c2ccccc12)C(N)=O` [RQIRW], the minimal inhibitory concentration (MIC) is no less than 50 µM in the experiment with Salmonella sp.; greater than 50 µM in experiment [8]; no less than 50 µM in experiment [9]; no less than 50 µM with Yersinia enterocolitica; greater than 50 µM in [10]; greater than 50 µM in experiment [11]. The MIC (in experiment [12]; in the experiment with Escherichia coli) was greater than 50 µM throughout.

For the molecule `CC(C)C[C@H](NC(=O)[C@H](Cc1c[nH]c2ccccc12)NC(=O)[C@H](Cc1c[nH]c2ccccc12)NC(=O)[C@H](CCCCN)NC(=O)[C@H](Cc1c[nH]c2ccccc12)NC(=O)[C@H](CCCN=C(N)N)NC(=O)[C@H](CCCN=C(N)N)NC(=O)[C@H](Cc1c[nH]c2ccccc12)NC(=O)[C@@H](N)CCCN=C(N)N)C(=O)O` [RWRRWKWWL], the MIC was 0.611 µM (≈ 0.9 µg/mL) in [13]; 2.65 µM (≈ 3.9 µg/mL) in experiment [14]; 1.36 µM (≈ 2 µg/mL) in experiment [15]; 10.9 µM (≈ 16 µg/mL) in [16]; 5.5 µM (≈ 8.1 µg/mL) against Pseudomonas aeruginosa 9; 21 µM (≈ 31 µg/mL) in experiment [17]. Further, the MIC was 2.65 µM (≈ 3.9 µg/mL) in [18]; 5.5 µM (≈ 8.1 µg/mL) in experiment [19]; 0.136 µM (≈ 0.2 µg/mL) in [20]; 1.36 µM (≈ 2 µg/mL) in experiment [21]; no less than 42.1 µM in [22]; 10.9 µM (≈ 16 µg/mL) in experiment [23]. In addition, the minimal inhibitory concentration (MIC) is 1.36 µM (≈ 2 µg/mL) in experiment [24]; 0.34 µM (≈ 0.5 µg/mL) in [25]; no less than 42.1 µM in experiment [26]; 5.02 µM (≈ 7.4 µg/mL) in experiment [27]; 2.65 µM (≈ 3.9 µg/mL) in [28]; 1.36 µM (≈ 2 µg/mL) in experiment [29]. In addition, the MIC in experiment [30] is 5.5 µM (≈ 8.1 µg/mL); in experiment [31], 2.65 µM (≈ 3.9 µg/mL).

With `N=C(N)NCCC[C@H](NC(=O)[C@H](CCCNC(=N)N)NC(=O)[C@H](Cc1c[nH]c2ccccc12)NC(=O)[C@H](Cc1c[nH]c2ccccc12)NC(=O)[C@H](Cc1c[nH]c2ccccc12)NC(=O)[C@H](Cc1c[nH]c2ccccc12)NC(=O)[C@H](Cc1c[nH]c2ccccc12)NC(=O)[C@H](CCCCN)NC(=O)[C@H](Cc1c[nH]c2ccccc12)NC(=O)[C@H](Cc1c[nH]c2ccccc12)NC(=O)[C@@H](N)CCCNC(=N)N)C(=O)N[C@@H](Cc1c[nH]c2ccccc12)C(=O)N[C@@H](CCCCN)C(=O)N[C@@H](Cc1c[nH]c2ccccc12)C(=O)N[C@@H](CCCCN)C(=O)N[C@@H](CCCCN)C(N)=O` [RWWKWWWWWRRWKWKK], the MIC with Salmonella sp. was no less than 50 µM; in [8], greater than 50 µM; in experiment [9], 25 µM (≈ 66.9 µg/mL); in experiment [32], no less than 200 µM; against Yersinia enterocolitica, no less than 50 µM; in experiment [10] it was greater than 50 µM. In addition, the MIC in experiment [33] was 100 µM (≈ 267 µg/mL); in experiment [11], greater than 50 µM; in experiment [12] it was greater than 50 µM; with Escherichia coli it was greater than 50 µM.

For the molecule `CC[C@H](C)[C@H](NC(=O)[C@H](Cc1ccccc1)NC(=O)[C@H](C)NC(=O)[C@H](CCCCN)NC(=O)[C@H](CCCCN)NC(=O)CNC(=O)[C@H](CCCN=C(N)N)NC(=O)[C@H](CCCCN)NC(=O)[C@H](CCCN=C(N)N)NC(=O)[C@H](CC(C)C)NC(=O)[C@H](CCC(=O)O)NC(=O)[C@H](CCC(=O)O)NC(=O)[C@H](CC(C)C)NC(=O)[C@H](CC(C)C)NC(=O)[C@H](Cc1ccc(O)cc1)NC(=O)[C@H](CCCCN)NC(=O)[C@@H](NC(=O)[C@H](CC(C)C)NC(=O)[C@H](C)NC(=O)[C@H](CCC(N)=O)NC(=O)[C@H](CCCN=C(N)N)NC(=O)CNC(=O)[C@@H](N)Cc1c[nH]c2ccccc12)[C@@H](C)O)C(=O)N[C@@H](C)C(=O)N[C@@H](Cc1c[nH]c2ccccc12)C(=O)O` [WGRQALTKYLLEELRKRGKKAFIAW], the MIC is 16 µM (≈ 49 µg/mL) against Escherichia coli BL21, 2 µM (≈ 6.13 µg/mL) in [1], 64 µM (≈ 196 µg/mL) in [2] and no less than 128 µM in [34].
